Target: Tyrosine-protein phosphatase non-receptor type 14 (Homo sapiens) (UniProt Q15678)
Assay: inhibition of PTPN14 enzymatic activity – biochemical, human, DiFMUP fluorescence (AID 402)
Settings: recombinant PTPN14, DiFMUP fluorescence phosphatase assay; at 50 µM; hits give high values

Chain of Tyrosine-protein phosphatase non-receptor type 14 (Homo sapiens) (Q15678 whole entry, looked up): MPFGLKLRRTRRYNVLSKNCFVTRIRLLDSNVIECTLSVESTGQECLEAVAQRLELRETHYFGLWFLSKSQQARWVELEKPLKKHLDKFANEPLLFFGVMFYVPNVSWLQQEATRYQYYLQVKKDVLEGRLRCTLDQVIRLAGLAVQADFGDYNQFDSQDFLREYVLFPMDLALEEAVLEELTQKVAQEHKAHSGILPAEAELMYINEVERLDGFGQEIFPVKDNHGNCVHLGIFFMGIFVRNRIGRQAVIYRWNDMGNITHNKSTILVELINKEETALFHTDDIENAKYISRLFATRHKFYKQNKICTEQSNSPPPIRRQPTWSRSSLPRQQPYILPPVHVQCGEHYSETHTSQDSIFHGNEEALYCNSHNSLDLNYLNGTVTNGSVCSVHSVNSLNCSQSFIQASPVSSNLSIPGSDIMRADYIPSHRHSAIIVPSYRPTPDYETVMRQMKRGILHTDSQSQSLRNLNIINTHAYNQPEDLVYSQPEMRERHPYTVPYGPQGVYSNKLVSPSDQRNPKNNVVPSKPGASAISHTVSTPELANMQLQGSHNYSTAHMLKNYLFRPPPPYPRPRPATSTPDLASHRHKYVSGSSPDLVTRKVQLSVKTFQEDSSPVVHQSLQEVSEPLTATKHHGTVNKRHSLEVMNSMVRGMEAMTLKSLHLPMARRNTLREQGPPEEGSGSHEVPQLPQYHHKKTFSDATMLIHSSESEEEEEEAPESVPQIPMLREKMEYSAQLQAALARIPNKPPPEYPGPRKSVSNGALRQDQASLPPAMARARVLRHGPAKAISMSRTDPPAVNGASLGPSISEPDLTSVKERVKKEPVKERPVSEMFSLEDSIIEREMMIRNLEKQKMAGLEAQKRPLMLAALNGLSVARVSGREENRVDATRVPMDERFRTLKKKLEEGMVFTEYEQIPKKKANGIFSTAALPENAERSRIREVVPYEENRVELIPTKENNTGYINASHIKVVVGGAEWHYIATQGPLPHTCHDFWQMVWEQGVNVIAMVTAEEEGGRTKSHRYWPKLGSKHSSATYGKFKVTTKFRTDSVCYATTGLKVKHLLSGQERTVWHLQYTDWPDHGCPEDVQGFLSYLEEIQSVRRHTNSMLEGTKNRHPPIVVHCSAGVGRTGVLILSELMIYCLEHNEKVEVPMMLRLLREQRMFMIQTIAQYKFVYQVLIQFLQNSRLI

SMILES | inhibition [%]
CCn1nc(/C=C/c2ccccc2)nc2c(=O)n(C)c(=O)nc1-2 | 24
CCn1nc(-c2ccc(Cl)cc2)nc2c(=O)n(C)c(=O)nc1-2 | 30.5
Cn1c(=O)[nH]c2c(c1=O)[n+](=O)c(/C=C/c1ccccc1)nn2C | 28
O=P(O)(O)Oc1cccc2ccccc12 | 26
CCn1nc(/C=C/c2ccccc2)[n+](=O)c2c(=O)n(C)c(=O)[nH]c21 | 33
[NH-]CO.[NH-]CO.[NH-]CO.[NH-]CO.[O]=[V][O][V]=[O] | 28.5
Cn1nc(/C=C/c2ccccc2)nc2c(=O)n(C)c(=O)nc1-2 | 37
O=C(O)c1ccc([O-])cn1.OO.OO.[K+].[K+].[O]=[V] | 70
O=P(O)(O)OC(CO)CO | 27
CN(N=O)c1ccc(O)c(O)c1 | 68
CCn1nc(-c2ccccc2)nc2c(=O)n(C)c(=O)nc1-2 | 25.5
Cn1nc(-c2ccccc2)nc2c(=O)n(C)c(=O)nc1-2 | 39.5
c1ccc([C@H]2CN3CCSC3=N2)cc1 | 27
OO.OO.[K+].[O]=[V].c1cnc2c(c1)ccc1cccnc12 | 49
O=C(O)c1ccc(O)cn1.OO.[O]=[V] | 62.5
O=C([O-])c1ccccn1.OO.OO.[K+].[K+].[O]=[V] | 73
OO.OO.[K+].[O]=[V].c1ccc(-c2ccccn2)nc1 | 72
